Measured values as given in PubChem BioAssay AID248 (DTP/NCI, 2004).
Values joined by “and” are separate entries in the source; they are usually repeats but may differ in a detail not shown here. Equal values may be shown once. Toxic doses and inconclusive results are not listed. Cut-off read from the data, not from the text of the source: active = T/C of 150% or more; inactive = T/C below 125%.

System: L1210 leukemia ip in BDF1 mice, survival T/C
Test: NCI In Vivo Anticancer Drug Screen. Data for tumor model L1210 Leukemia (intraperitoneal) in B6D2F1 (BDF1) mice
Details: endpoint: mean survival time, higher = longer survival
How it was run: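 Survival endpoint. Drug-treated group vs vehicle group, expressed as T divided by C. Tumor passaged by transplantation.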

[1] = dose: 100.0 mg/kg/injection, schedule: Q01DX009 (ip), vehicle: Klucel (hydroxypropylcellulose) (HPC)
[2] = dose: 100.0 mg/kg/injection, schedule: Q04DX003 (ip), vehicle: Klucel (hydroxypropylcellulose) (HPC)
[3] = dose: 200.0 mg/kg/injection, schedule: Q01DX009 (ip), vehicle: Klucel (hydroxypropylcellulose) (HPC)
[4] = dose: 200.0 mg/kg/injection, schedule: Q04DX003 (ip), vehicle: Klucel (hydroxypropylcellulose) (HPC)
[5] = dose: 400.0 mg/kg/injection, schedule: Q01DX009 (ip), vehicle: Klucel (hydroxypropylcellulose) (HPC)
[6] = dose: 400.0 mg/kg/injection, schedule: Q04DX003 (ip), vehicle: Klucel (hydroxypropylcellulose) (HPC)
[7] = dose: 100.0 mg/kg/injection, schedule: Q01DX001 (ip), vehicle: other
[8] = dose: 200.0 mg/kg/injection, schedule: Q01DX001 (ip), vehicle: other
[9] = dose: 100.0 mg/kg/injection, schedule: Q01DX001 (ip), vehicle: saline
[10] = dose: 200.0 mg/kg/injection, schedule: Q01DX001 (ip), vehicle: saline
[11] = dose: 400.0 mg/kg/injection, schedule: Q01DX001 (ip), vehicle: saline
[12] = dose: 100.0 mg/kg/injection, schedule: Q01DX009 (ip), vehicle: saline with Tween-80
[13] = dose: 200.0 mg/kg/injection, schedule: Q01DX009 (ip), vehicle: saline with Tween-80
[14] = dose: 400.0 mg/kg/injection, schedule: Q01DX009 (ip), vehicle: saline with Tween-80
[15] = dose: 100.0 mg/kg/injection, schedule: Q01DX001 (ip), vehicle: saline with Tween-80
[16] = dose: 100.0 mg/kg/injection, schedule: Q04DX003 (ip), vehicle: saline with Tween-80
[17] = dose: 200.0 mg/kg/injection, schedule: Q01DX001 (ip), vehicle: saline with Tween-80
[18] = dose: 400.0 mg/kg/injection, schedule: Q01DX001 (ip), vehicle: saline with Tween-80
[19] = dose: 100.0 mg/kg/injection, schedule: Q04DX002 (ip), vehicle: gum acacia
[20] = dose: 200.0 mg/kg/injection, schedule: Q04DX002 (ip), vehicle: gum acacia
[21] = dose: 400.0 mg/kg/injection, schedule: Q04DX002 (ip), vehicle: gum acacia

Measured: T/C

CNC(=S)NNc1ccccc1
inactive: [1] 110 % of control | [2] 104 % of control | dose: 100.0 mg/kg/injection, schedule: Q04DX003 (ip), vehicle: gum acacia 98 % of control | [3] 103 % of control | [4] 104 % of control | dose: 200.0 mg/kg/injection, schedule: Q04DX003 (ip), vehicle: gum acacia 96 % of control | [5] 103 % of control | [6] 103 % of control | dose: 400.0 mg/kg/injection, schedule: Q04DX003 (ip), vehicle: gum acacia 101 % of control

CC(C)c1cc(O)ccc1O
inactive: [7] 102 % of control | [8] 94 % of control

CSC(=S)NNC(=O)C1CCCCC1
inactive: dose: 100.0 mg/kg/injection, schedule: Q04DX003 (ip), vehicle: saline 106 % of control | dose: 200.0 mg/kg/injection, schedule: Q04DX003 (ip), vehicle: saline 98 % of control | dose: 400.0 mg/kg/injection, schedule: Q04DX003 (ip), vehicle: saline 104 % of control

Oc1ccc(O)c2c1C1C=CC2CC1
inactive: [9] 96 % of control | [10] 105 % of control | [11] 98 % of control

CC(C)OC(=O)Nc1ccc(Cl)cc1
inactive: [12] 94 % of control | [13] 97 % of control | [14] 94 % of control

CCOC(=O)C(C(=O)CC)C(COC)C(=O)OC (configuration not stated)
inactive: [7] 92 % of control | [8] 96 % of control | dose: 400.0 mg/kg/injection, schedule: Q01DX001 (ip), vehicle: other 97 % of control

c1ccc(C([CH2][Hg][CH2]C(c2ccccc2)c2ccccc2)c2ccccc2)cc1
inactive: dose: 100.0 mg/kg/injection, schedule: Q01DX009 (ip), vehicle: saline 101 % of control | [2] 97 % of control | dose: 200.0 mg/kg/injection, schedule: Q01DX009 (ip), vehicle: saline 96 % of control | [4] 93 % of control | dose: 400.0 mg/kg/injection, schedule: Q01DX009 (ip), vehicle: saline 101 % of control | [6] 90 % of control

Cc1ccc(Cl)cc1NC(=O)Nc1cc(Cl)c(Cl)cc1C
inactive: dose: 50.0 mg/kg/injection, schedule: Q04DX003 (ip), vehicle: saline with Tween-80 94 % of control and 88 % of control | [15] 100 % of control | [12] 95 % of control and 97 % of control | dose: 100.0 mg/kg/injection, schedule: Q04DX002 (ip), vehicle: saline with Tween-80 95 % of control and 106 % of control | [16] 96 % of control | [17] 86 % of control | [13] 93 % of control and 97 % of control | dose: 200.0 mg/kg/injection, schedule: Q04DX002 (ip), vehicle: saline with Tween-80 97 % of control and 88 % of control | [18] 89 % of control | [14] 98 % of control and 105 % of control | dose: 400.0 mg/kg/injection, schedule: Q04DX002 (ip), vehicle: saline with Tween-80 101 % of control and 92 % of control | dose: 400.0 mg/kg/injection, schedule: Q04DX003 (ip), vehicle: saline with Tween-80 95 % of control and 88 % of control

CC(C)CCNc1ncnc2[nH]ncc12
inactive: dose: 12.5 mg/kg/injection, schedule: Q01DX009 (ip), vehicle: Klucel (hydroxypropylcellulose) (HPC) 117 % of control | dose: 25.0 mg/kg/injection, schedule: Q01DX009 (ip), vehicle: Klucel (hydroxypropylcellulose) (HPC) 104 % of control | dose: 50.0 mg/kg/injection, schedule: Q01DX009 (ip), vehicle: Klucel (hydroxypropylcellulose) (HPC) 109 % of control

c1ccc(CCC[P+](c2ccccc2)(c2ccccc2)c2ccccc2)cc1
inactive: dose: 2.5 mg/kg/injection, schedule: Q01DX009 (ip), vehicle: saline 113 % of control | dose: 5.0 mg/kg/injection, schedule: Q01DX001 (ip), vehicle: saline 101 % of control | dose: 5.0 mg/kg/injection, schedule: Q01DX009 (ip), vehicle: saline 118 % of control | dose: 10.0 mg/kg/injection, schedule: Q01DX001 (ip), vehicle: saline 95 % of control | dose: 10.0 mg/kg/injection, schedule: Q01DX009 (ip), vehicle: saline 102 % of control | dose: 20.0 mg/kg/injection, schedule: Q01DX001 (ip), vehicle: saline 117 % of control | dose: 40.0 mg/kg/injection, schedule: Q01DX001 (ip), vehicle: saline 117 % of control

CC(=O)OC1C(OCc2ccccc2)OC(COCc2ccccc2)C(OC2OC(COCc3ccccc3)C(OCc3ccccc3)C(OCc3ccccc3)C2OCc2ccccc2)C1OCc1ccccc1 (configuration not stated)
inactive: dose: 5.31 mg/kg/injection, schedule: Q01DX009 (ip), vehicle: Klucel (hydroxypropylcellulose) (HPC) 97 % of control | dose: 10.62 mg/kg/injection, schedule: Q01DX009 (ip), vehicle: Klucel (hydroxypropylcellulose) (HPC) 94 % of control | dose: 12.5 mg/kg/injection, schedule: Q04DX003 (ip), vehicle: Klucel (hydroxypropylcellulose) (HPC) 87 % of control and 92 % of control | dose: 21.25 mg/kg/injection, schedule: Q01DX009 (ip), vehicle: Klucel (hydroxypropylcellulose) (HPC) 94 % of control | dose: 25.0 mg/kg/injection, schedule: Q04DX003 (ip), vehicle: Klucel (hydroxypropylcellulose) (HPC) 87 % of control | dose: 50.0 mg/kg/injection, schedule: Q04DX003 (ip), vehicle: Klucel (hydroxypropylcellulose) (HPC) 87 % of control and 88 % of control | dose: 75.0 mg/kg/injection, schedule: Q04DX003 (ip), vehicle: other 91 % of control | dose: 85.0 mg/kg/injection, schedule: Q01DX009 (ip), vehicle: Klucel (hydroxypropylcellulose) (HPC) 86 % of control | dose: 115.0 mg/kg/injection, schedule: Q04DX003 (ip), vehicle: other 91 % of control | dose: 170.0 mg/kg/injection, schedule: Q04DX003 (ip), vehicle: other 93 % of control

CCCCC(=O)N/N=C/c1c(O)ccc2ccccc12
inactive: [9] 94 % of control | [10] 94 % of control | [11] 92 % of control

CC(=O)NC1C(C)OC2COC(C)(C)OC2C1C (configuration not stated)
inactive: [15] 100 % of control | [17] 100 % of control | [18] 104 % of control

CC(=O)OCC1OC(n2cnc([N+](=O)[O-])c2Br)C(OC(C)=O)C1OC(C)=O (configuration not stated)
inactive: dose: 50.0 mg/kg/injection, schedule: Q01DX001 (ip), vehicle: saline 98 % of control | [9] 98 % of control | [10] 102 % of control | [11] 102 % of control

Clc1ccc(C(c2cccs2)N2CCNCC2)cc1 (configuration not stated)
inactive: dose: 25.0 mg/kg/injection, schedule: Q01DX009 (ip), vehicle: saline with Tween-80 96 % of control | dose: 50.0 mg/kg/injection, schedule: Q01DX009 (ip), vehicle: saline with Tween-80 90 % of control | [16] 98 % of control

[Cl][Ge]([c]1ccccc1)([c]1ccccc1)[c]1ccccc1
inactive: [1] 104 % of control | [3] 102 % of control | [5] 95 % of control

COC1OC2COc3ccccc3OC2C(NC(C)=O)C1O (configuration not stated)
inactive: dose: 100.0 mg/kg/injection, schedule: Q01DX009 (ip), vehicle: other 96 % of control | dose: 200.0 mg/kg/injection, schedule: Q01DX009 (ip), vehicle: other 89 % of control | dose: 400.0 mg/kg/injection, schedule: Q01DX009 (ip), vehicle: other 94 % of control

Nc1ccccc1SC1CC(=O)N(c2ccc(Br)cc2)C1=O (configuration not stated)
inactive: [19] 95 % of control | [20] 88 % of control | [21] 95 % of control

Cc1ccc(NC(=O)Nc2ccc(C3=NCCN3)cc2)cc1NC(=O)Nc1ccc(C2=NCCN2)cc1
inactive: dose: 2.25 mg/kg/injection, schedule: Q01DX Z (ip), vehicle: water 105 % of control | dose: 4.5 mg/kg/injection, schedule: Q01DX Z (ip), vehicle: water 102 % of control | dose: 9.0 mg/kg/injection, schedule: Q01DX Z (ip), vehicle: water 92 % of control | dose: 18.0 mg/kg/injection, schedule: Q01DX Z (ip), vehicle: water 100 % of control

COC1N(c2ccccc2)CCN1c1ccccc1
inactive: [19] 109 % of control | [20] 106 % of control | [21] 106 % of control

O=C1CC(=O)C(Br)=C1Br
inactive: dose: 1.5 mg/kg/injection, schedule: Q04DX003 (ip), vehicle: saline with Tween-80 101 % of control | dose: 3.0 mg/kg/injection, schedule: Q04DX003 (ip), vehicle: saline with Tween-80 105 % of control
